In brackets after ≈: the same amount, converted by molar mass. Read-outs that look alike come from different tables or passages of the source. Values belong to the molecule of their own block, whether it stands above or below them.
Key:
[1] = Cecal content concentrations in hamsters; type: in vivo; conditions: for mean peak cecal concentration: hamster cecal contents at 1, 3 and 5 h after oral dosing 100 mg/kg, LLOQ 10 ng/mL
Method: (§1) After dosing animals (n=3 per time point) as above, animals were humanely sacrificed at time points and their cecal contents collected and stored at −20° C. For plasma samples, 25 μL of plasma was placed in 384-well analytical plate and quenched by the addition of 50 μL of acetonitrile containing 4 mg/L warfarin as an internal standard. The plate was sealed, shaken at 600 rpm for 10 min, and then was centrifuged at 4000 rpm for 20 min. 15 μL of the supernatant was transferred to a new analytical 96-well plate and mixed with 100 μL of MilliQ water. The samples were analyzed by injecting 5 μL onto a Waters UPLC/SQD LC-MS/MS system. The cecal samples were processed by adding 100 μL of acetonitrile containing 4 mg/L of warfarin (internal standard) to the microfuge tubes containing cecal matter (˜50 mg). The suspension was vortexed for 10 sec, sonicated for 1 min and then centrifuged at 10,000 rpm for 10 min. Aliquots (50 μL) of the collected supernatants were then transferred to a 384-well plate and analyzed by high resolution mass spectroscopy using Waters XEVO QTOF LCMS.
To evaluate this in vivo, we determined the concentrations of the three compounds in the cecal contents recovered from hamsters at 1, 3 and 5 h time points following oral dosing (FIG. 19).

[2] = In vitro microsomal stability; type: in vitro ADME; conditions: microsomes; data not shown; read-out: microsomal stability t½ (converted)
From the text: Thus, the very low concentration of the hybrids in the plasma might likely be due to a combination of poor intestinal absorption and hepatic clearance.

[3] = test system: C. difficile strain ATCC 43596; test: MIC against infecting strain ATCC 43596; type: cell-based, Clostridium difficile
[4] = Pharmacokinetic study in hamsters, plasma; type: in vivo; conditions: male, Syrian, po, hamster, 100 mg/kg in PEG-400:water (85:15); for AUC: read-out: total exposure (AUC) in plasma
Method: as §1, with “Pharmacokinetic studies were assessed in male Syrian hamsters (˜100 g), from Charles-River, with each carrying a pre-implanted jugular vein cannula. Hamsters (n=5 per group) were fasted overnight and for the duration of the experiment (7 h). After collecting pre-dose blood samples (200 μL), animals were dosed with 100 mg/kg of compounds formulated in PEG-400:water (85:15). At various time points blood samples were collected into heparinized coated tubes that were centrifuged at 3000 rpm for 10 min to yield plasma, which was stored at −20° C. After” for “After”

Caco-2 monolayer = test: Caco-2 cell permeability assay; type: in vitro ADME
Method: The permeability co-efficient (Papp A-B) of the compounds were calculated and the ability of compounds to move from the apical to the basolateral side of Caco-2 monolayer is shown in FIG. 16.

[5] = test system: C. difficile strain ATCC 43596; test: Hamster model of CDI (efficacy); type: in vivo, Golden Syrian hamsters
Method: Golden Syrian hamsters (˜100 g) from Charles River Laboratories were separately housed in sterile cages and maintained on sterile food and water. On day −1, animals were subcutaneously injected with clindamycin phosphate solution (50 mg/kg, from Hospira). After 20 h (day 0), hamsters were infected by oral gavage with 10^6 cfu of the C. difficile strain ATCC 43596 grown in Sporulation Medium and washed once with pre-reduced PBS; 15. […] After 5 days of treatment, surviving hamsters were monitored for up to 30 days for signs of disease as described by Anton et al. All moribund animals were euthanized, as well as those that survived the post-treatment monitoring period (30 days); ceca were recovered from all animals. All animal experiments were approved by The Institutional Animal Care and Use Committee of The University of Texas at Arlington.

[6] = literature; cited from earlier work
C. difficile = test: MIC of nitro and des-nitro analogs (mode of action); type: cell-based, Clostridium difficile; conditions: Clostridioides difficile; des-nitro analogs (FIG. 11)
[7] = test system: C. difficile strains R20291 and BAA-1875; test: MIC testing against C. difficile strains R20291 and BAA-1875; type: cell-based, Clostridium difficile; conditions: for fold less active than 1971 (MIC): relative to parent 1971; for MIC: Clostridioides difficile, BAA1875, C. difficile R20291 and BAA-1875 (FIG. 8), 24 h, 37° C., anaerobic
Method: (§2) The synthesized compounds were initially tested against four virulent C. difficile strains: CD1803 (toxinotype III, 95 NAP1), CD1875 (toxinotype V, NAP7), R20291 (ribotype 027—from A. Sonenshein, Tufts University, USA), and BAA-1875 (ribotype 078, from American Type Culture Collection-ATCC). The activities (i.e. Minimum Inhibitory Concentrations-MICs) of test compounds were determined in 24 or 96 well microtitre plates using bacterial inocula of 10^6 cfu/mL and were defined as the lowest concentration of test compound that inhibited visible growth after 24 h of incubation at 37° C. in an A35 anaerobic chamber (Don-Whitley).

[8] = test system: C. difficile strain BAA-1803; test: MIC against C. difficile strain BAA-1803; type: cell-based, Clostridium difficile; conditions: 3-position substituents
Method: as §2

[9] = test system: Clostridium difficile infection; conditions: severe CDI; cited from earlier work
[10] = Clostridioides difficile, ATCC43596, infecting strain ATCC 43596, read-out: MIC

fold difference in cecal concentration of 2344 and 2345 ([1]; 2345 versus 2344): 12 fold | mean peak cecal concentration [1]: 32,649 ng/mL | half-life [2]: 79.8 min | MIC [3, 10]: 0.25 µg/mL (≈ 0.543 µM) | Cmax [4]: 616 ng/mL | Tmax [4]: 15 min | AUC [4]: 355 ng·h/mL
SMILES: CC(=O)C1=C(O)C(Cc2ccc(-c3ccccc3)cc2)N(CCn2c([N+](=O)[O-])cnc2C)C1=O (centres unmarked) [Compound 2345, 5-([1,1′-biphenyl]-4-ylmethyl)-3-acetyl-4-hydroxy-1-(2-(2-methyl-5-nitro-1H-imidazol-1-yl)ethyl)-1H-pyrrol-2(5H)-one]

SMILES: CN[C@H](CC(C)C)C(=O)N[C@H]1C(=O)N[C@@H](CC(N)=O)C(=O)N[C@H]2C(=O)N[C@H]3C(=O)N[C@H](C(=O)N[C@H](C(=O)O)c4cc(O)cc(O)c4-c4cc3ccc4O)[C@H](O)c3ccc(c(Cl)c3)Oc3cc2cc(c3O[C@@H]2O[C@H](CO)[C@@H](O)[C@H](O)[C@H]2O[C@H]2C[C@](C)(N)[C@H](O)[C@H](C)O2)Oc2ccc(cc2Cl)[C@H]1O [vancomycin]
Caco-2 permeation in words (Caco-2 monolayer; apical to basolateral): poor permeation properties | complete survival, days post-treatment ([5]; vancomycin 20 mg/kg, hybrids 50 mg/kg): more than 20 days | absorbed from the gastrointestinal tract [6]: < 10%

Caco-2 permeation in words (Caco-2 monolayer; Caco-2): slightly more permeable than vancomycin | permeability co-efficient (Papp A-B) (Caco-2 monolayer; Caco-2): 284.5±34.7 to 307±35.6
SMILES: CC(=O)C1=C(O)C(CSCc2ccccc2)N(CCn2c([N+](=O)[O-])cnc2C)C1=O (centres unmarked) [Compound 2313, 3-acetyl-5-((benzylthio)methyl)-4-hydroxy-1-(2-(2-methyl-5-nitro-1H-imidazol-1-yl)ethyl)-1H-pyrrol-2(5H)-one]

MIC (C. difficile): > 128 µg/mL
SMILES: CC(=O)C1=C(O)C(Cc2cccc3ccccc23)N(CCn2ccnc2C)C1=O (centres unmarked) [Compound 2699, 3-acetyl-4-hydroxy-1-(2-(2-methyl-1H-imidazol-1-yl)ethyl)-5-(naphthalen-1-ylmethyl)-1H-pyrrol-2(5H)-one]

Caco-2 permeation in words (Caco-2 monolayer; Caco-2): slightly more permeable than vancomycin | permeability co-efficient (Papp A-B) (Caco-2 monolayer; Caco-2): 284.5±34.7 to 307±35.6
SMILES: CC(=O)C1=C(O)C(Cc2ccccc2)N(CCn2c([N+](=O)[O-])cnc2C)C1=O (centres unmarked) [Compound 2154, 3-acetyl-5-benzyl-4-hydroxy-1-(2-(2-methyl-5-nitro-1H-imidazol-1-yl)ethyl)-1H-pyrrol-2(5H)-one]

fold less active than 1971 (MIC) [7]: 10 fold
SMILES: Cc1ncc([N+](=O)[O-])n1CC(=O)C1=C(O)C(CC(C)C)NC1=O (centres unmarked) [Compound 2123, 4-hydroxy-5-isobutyl-3-(2-(2-methyl-5-nitro-1H-imidazol-1-yl)acetyl)-1H-pyrrol-2(5H)-one]

MIC ([3]; infecting strain ATCC 43596): 0.25 µg/mL (≈ 0.571 µM)
SMILES: CC(=O)C1=C(O)C(Cc2cn(C)c3ccccc23)N(CCn2c([N+](=O)[O-])cnc2C)C1=O (centres unmarked) [Compound 2490]

activity / MIC in words (FIG. 10) [8]: loss of activity
SMILES: Cc1ncc([N+](=O)[O-])n1CCN1C(=O)C=C(O)C1CC(C)C.O=C(O)C(F)(F)F (centres unmarked) [Compound 2314, 4-hydroxy-5-isobutyl-1-(2-(2-methyl-5-nitro-1H-imidazol-1-yl)ethyl)-1H-pyrrol-2(5H)-one, TFA]

fold less active than 1971 (MIC) [7]: > 64 fold
SMILES: CC(=O)C1=C(O)CN(CCn2c([N+](=O)[O-])cnc2C)C1=O [Compound 2153, 3-acetyl-4-hydroxy-1-(2-(2-methyl-5-nitro-1H-imidazol-1-yl)ethyl)-1H-pyrrol-2(5H)-one]

Caco-2 permeation in words (Caco-2 monolayer; Caco-2): slightly more permeable than vancomycin | permeability co-efficient (Papp A-B) (Caco-2 monolayer; Caco-2): 284.5±34.7 to 307±35.6
SMILES: CCC(C)C1C(O)=C(C(C)=O)C(=O)N1CCn1c([N+](=O)[O-])cnc1C (centres unmarked) [Compound 2155, 3-acetyl-5-(sec-butyl)-4-hydroxy-1-(2-(2-methyl-5-nitro-1H-imidazol-1-yl)ethyl)-1H-pyrrol-2(5H)-one]

mean peak cecal concentration [1]: 2,678 ng/mL | half-life [2]: 18 min | MIC [3, 10]: 0.25 µg/mL (≈ 0.575 µM) | Cmax [4]: 211 ng/mL | Tmax [4]: 15 min | AUC [4]: 386 ng·h/mL
SMILES: CC(=O)C1=C(O)C(Cc2cccc3ccccc23)N(CCn2c([N+](=O)[O-])cnc2C)C1=O (centres unmarked) [Compound 2344, 3-acetyl-4-hydroxy-1-(2-(2-methyl-5-nitro-1H-imidazol-1-yl)ethyl)-5-(naphthalen-1-ylmethyl)-1H-pyrrol-2(5H)-one]

MIC [3, 10]: 0.5 µg/mL (≈ 1.43 µM) | MIC [7]: 1 to 2 µg/mL (≈ 2.85 to 5.71 µM) | fold less active than metronidazole (MIC) ([7]; relative to metronidazole): 4 to 8 fold | activity / MIC in words (FIG. 10) [8]: No difference in MIC
SMILES: CC(=O)C1=C(O)C(CC(C)C)N(CCn2c([N+](=O)[O-])cnc2C)C1=O (centres unmarked) [Compound 1971, 3-acetyl-4-hydroxy-5-isobutyl-1-(2-(2-methyl-5-nitro-1H-imidazol-1-yl)ethyl)-1H-pyrrol-2(5H)-one]

MIC (C. difficile): > 128 µg/mL
SMILES: CC(=O)C1=C(O)C(Cc2ccc(-c3ccccc3)cc2)N(CCn2ccnc2C)C1=O (centres unmarked) [Compound 2700, 5-([1,1′-biphenyl]-4-ylmethyl)-3-acetyl-4-hydroxy-1-(2-(2-methyl-1H-imidazol-1-yl)ethyl)-1H-pyrrol-2(5H)-one]

SMILES: Cc1ncc([N+](=O)[O-])n1CCO [metronidazole, reference compound]
patients relapsing following therapy [9]: more than 25% | Caco-2 permeation in words (Caco-2 monolayer; apical to basolateral): highly permeable | MIC ([3]; Clostridioides difficile, ATCC43596): 0.125 µg/mL (≈ 0.73 µM) | survival, maximum days post-infection ([5]; 50 mg/kg once daily, days 1 to 5, oral): ≤ 10 days | MIC [7]: 0.25 µg/mL (≈ 1.46 µM) | Cmax [4]: 51000 ng/mL | Tmax [4]: 60 min | AUC [4]: 135000 ng·h/mL

Caco-2 permeation in words (Caco-2 monolayer; Caco-2): slightly more permeable than vancomycin | permeability co-efficient (Papp A-B) (Caco-2 monolayer; Caco-2): 284.5±34.7 to 307±35.6 | activity / MIC in words (FIG. 10) [8]: No difference in MIC
SMILES: Cc1ncc([N+](=O)[O-])n1CCN1C(=O)C(C(=O)c2ccc(F)cc2)=C(O)[C@H]1CC(C)C [Compound 2315, (R)-3-(4-fluorobenzoyl)-4-hydroxy-5-isobutyl-1-(2-(2-methyl-5-nitro-1H-imidazol-1-yl)ethyl)-1H-pyrrol-2(5H)-one]

fold less active than 1971 (MIC) [7]: 24 fold
SMILES: Cc1cnc([N+](=O)[O-])n1CCNC(=O)C1=C(O)C(CC(C)C)NC1=O (centres unmarked) [Compound 2122, 4-hydroxy-5-isobutyl-N-(2-(5-methyl-2-nitro-1H-imidazol-1-yl)ethyl)-2-oxo-2,5-dihydro-1H-pyrrole-3-carboxamide]

Source: US10011589B2, “Treatments for gastrointestinal conditions” (BOARD OF REGENTS, THE UNIVERSITY OF TEXAS SYSTEM, priority 2014, dated 2018)
